Laboratory results from ChEMBL document CHEMBL4765481, “Sialyltransferase Inhibitors Suppress Breast Cancer Metastasis” (J Med Chem, 2021).
Active and inactive are the calls of the source. The calls are words filed in the database; no cut-off is given here.

Assays:
[1] = system: MDA-MB-231; assay: Inhibition of Sialyltransferase in human MDA-MB-231 cells assessed as reduction in IKKalpha/beta Ser176/180 phosphorylation level at 10 to 20 uM incubated for 48 hrs by immunoblot analysis; format: cell-based; details: dose 10-20 µM
[2] = system: MDA-MB-231; assay: Inhibition of serum-induced cell migration of human MDA-MB-231 cells at 20 uM incubated for 16 hrs by Boyden chamber assay; format: functional, cell-based
[3] = Toxicity in BALB/c mouse xenografted with luciferase-tagged human MDA-MB-231 cells at 10 mg/kg/3 days, ip measured after 8 weeks by blood tests; format: organism-based; details: in vivo, 1344 h
[4] = organism: Danio rerio; assay: Antiangiogenic activity in transgenic zebrafish embryos assessed as suppression of caudal vein plexus formation at 20 uM measured at 30 hrs postfertilization by fluorescence microscopy; format: functional, organism-based
[5] = organism: Rattus norvegicus; assay: Selectivity ratio of inhibition of rat alpha-2,3-O-ST3GALI at 500 uM to IC50 for inhibition of rat alpha-2,3-N-ST3GALIII
[6] = system: MDA-MB-231; assay: Inhibition of Sialyltransferase in human MDA-MB-231 cells assessed as reduction in FAK Tyr925 phosphorylation level at 10 to 20 uM incubated for 48 hrs by immunoblot analysis; format: cell-based; details: dose 10-20 µM
[7] = system: MDA-MB-231; assay: Inhibition of Sialyltransferase in human MDA-MB-231 cells assessed as reduction in integrin isoforms expression (alphaV/alpha5/beta1/beta3/beta4/beta5) at 10 to 20 uM incubated for 48 hrs by immunoblot analysis; format: cell-based; details: dose 10-20 µM
[8] = Toxicity in human MDA-MB-231 cells assessed as cell survival at >60 uM relative to control; format: cell-based; details: read-out: Survival
[9] = target: T1, Beta-galactoside alpha-2,6-sialyltransferase 1 (Homo sapiens, UniProt P15907); assay: Inhibition of human alpha-2,6-ST6GAL1 assessed as reduction in sialylated-product formation using Gal-beta1-4GlcNac and CMP-NeuSAc incubated for 15 mins by reverse-phase HPLC analysis
T1 sequence (P15907 whole entry): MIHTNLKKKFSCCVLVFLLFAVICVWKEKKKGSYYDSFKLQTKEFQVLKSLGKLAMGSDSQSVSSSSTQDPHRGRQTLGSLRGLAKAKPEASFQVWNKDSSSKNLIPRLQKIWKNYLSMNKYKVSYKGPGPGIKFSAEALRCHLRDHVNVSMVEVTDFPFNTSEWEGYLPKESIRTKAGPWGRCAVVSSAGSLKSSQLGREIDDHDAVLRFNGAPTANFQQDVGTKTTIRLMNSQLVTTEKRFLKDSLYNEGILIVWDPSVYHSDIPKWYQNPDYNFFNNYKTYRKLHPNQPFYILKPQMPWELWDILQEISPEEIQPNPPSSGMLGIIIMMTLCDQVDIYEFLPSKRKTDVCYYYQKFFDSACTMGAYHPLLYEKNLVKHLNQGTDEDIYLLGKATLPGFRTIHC

[10] = system: MDA-MB-231; assay: Inhibition of Sialyltransferase in human MDA-MB-231 cells assessed as reduction in IkappaB-alpha Ser32 phosphorylation level at 10 to 20 uM incubated for 48 hrs by immunoblot analysis; format: cell-based; details: dose 10-20 µM
[11] = Apparent permeability at pH 7.4 by PAMPA
[12] = system: MDA-MB-231; assay: Inhibition of Sialyltransferase in human MDA-MB-231 cells assessed as reduction in FAK Tyr576/577 phosphorylation level at 10 to 20 uM incubated for 48 hrs by immunoblot analysis; format: cell-based; details: dose 10-20 µM
[13] = target: T2, Sialyltransferase ST3Gal-I (Rattus norvegicus) (UniProt Q6H8N0); assay: Inhibition of rat alpha-2,3-O-ST3GALI assessed as reduction in sialylated-product formation at 500 uM using p-nitrophenyl T-antigen and CMP-NeuSAc incubated for 15 mins by reverse-phase HPLC analysis relative to control
T2 sequence (whole entry): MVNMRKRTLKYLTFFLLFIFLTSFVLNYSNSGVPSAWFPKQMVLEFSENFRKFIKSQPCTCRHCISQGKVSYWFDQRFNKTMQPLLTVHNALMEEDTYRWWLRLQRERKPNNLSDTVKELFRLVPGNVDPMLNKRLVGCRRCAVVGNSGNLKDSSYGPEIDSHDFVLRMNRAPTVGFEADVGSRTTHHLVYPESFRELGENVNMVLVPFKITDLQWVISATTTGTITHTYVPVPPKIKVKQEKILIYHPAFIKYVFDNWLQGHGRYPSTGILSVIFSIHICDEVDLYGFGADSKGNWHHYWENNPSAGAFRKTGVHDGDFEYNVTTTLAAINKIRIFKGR

[14] = organism: Danio rerio; assay: Antiangiogenic activity in transgenic zebrafish embryos assessed as suppression of intersegmental vessels formation at 20 uM measured at 30 hrs postfertilization by fluorescence microscopy; format: functional, organism-based
[15] = system: MDA-MB-231; assay: Antitumor activity against luciferase-tagged human MDA-MB-231 cells xenografted in BALB/c mouse assessed as reduction in metastatic nodules in lymph node at 10 mg/kg/3 days, ip measured after 8 weeks by H and E staining based histological analysis; format: functional, organism-based
[16] = system: MDA-MB-231; assay: Antiangiogenesis activity against luciferase-tagged human MDA-MB-231 cells xenografted in BALB/c mouse assessed as reduction in cell proliferation by measuring Ki67 expression at 10 mg/kg/3 days, ip measured after 8 weeks by immunostaining; format: functional, organism-based
[17] = Toxicity in BALB/c mouse xenografted with luciferase-tagged human MDA-MB-231 cells assessed as effect on body weight at 10 mg/kg/3 days, ip measured after 8 weeks; format: organism-based; details: in vivo, 1344 h
[18] = system: MDA-MB-231; assay: Antiangiogenesis activity against luciferase-tagged human MDA-MB-231 cells xenografted in BALB/c mouse assessed as reduction in number of vessels surrounding tumor nodules by measuring CD31 expression at 10 mg/kg/3 days, ip measured after 8 weeks by immunostaining; format: functional, organism-based
[19] = system: MDA-MB-231; assay: Antitumor activity against luciferase-tagged human MDA-MB-231 cells xenografted in BALB/c mouse assessed as induction of delayed lung metastasis at 10 mg/kg/3 days, ip measured after 8 weeks; format: functional, organism-based
[20] = system: MDA-MB-231; assay: Inhibition of Sialyltransferase in human MDA-MB-231 cells assessed as decrease p-talin-1 association with integrins beta1 and beta 3 after 48 hrs by immunofluorescence and coimmunoprecipitation assay; format: cell-based
[21] = Toxicity in transgenic zebrafish embryos assessed as effect on gross morphology at 20 uM measured at 30 hrs postfertilization by fluorescence microscopy; parameters: species or system Danio rerio; details: in vivo
[22] = system: MDA-MB-231; assay: Inhibition of Sialyltransferase in human MDA-MB-231 cells assessed as reduction in FAK Tyr397 phosphorylation level at 10 to 20 uM incubated for 48 hrs by immunoblot analysis; format: cell-based; details: dose 10-20 µM
[23] = system: MDA-MB-231; assay: Antitumor activity against luciferase-tagged human MDA-MB-231 cells xenografted in BALB/c mouse assessed as reduction in number of metastatic foci in lungs at 10 mg/kg/3 days, ip measured after 8 weeks by histological analysis; format: functional, organism-based
[24] = system: MDA-MB-231; assay: Inhibition of serum-induced cell migration of human MDA-MB-231 cells incubated for 16 hrs by Boyden chamber assay; format: functional, cell-based; details: MDA-MB-231, 16 h
[25] = system: MDA-MB-231; assay: Inhibition of Sialyltransferase in human MDA-MB-231 cells assessed as reduction in paxillin Tyr118 phosphorylation level at 10 to 20 uM incubated for 48 hrs by immunoblot analysis; format: cell-based; details: dose 10-20 µM
[26] = organism: Rattus norvegicus; assay: Selectivity ratio of inhibition of rat alpha-2,3-O-ST3GALI at 1000 uM to IC50 for inhibition of rat alpha-2,3-N-ST3GALIII

SMILES: C[C@H](CCC(=O)OCCOCCOCCN=[N+]=[N-])[C@H]1CC[C@H]2[C@@H]3CC[C@@H]4C[C@H](OC(=O)[C@H](CC(=O)O)Nc5ccc([N+](=O)[O-])c6nonc56)CC[C@]4(C)[C@H]3CC[C@]12C
- inhibition [1]: Active
- inhibition [2]: Active
- Activity [3]: Non-Toxic
- Activity [4]: Active
- Selectivity ratio [5]: > 287
- inhibition [6]: Dose-dependent effect
- inhibition [7]: Dose-dependent effect
- viability [8]: > 90%
- IC50 [9]: 3.6 µM
- inhibition [10]: Active
- Papp [11]: 3.6 ×10⁻⁶ cm/s
- inhibition [12]: Dose-dependent effect
- inhibition [13]: 0%
- Activity [14]: Active
- Activity [15]: Active
- Activity [16]: Active
- Activity [17]: Non-Toxic
- Activity [18]: Active
- Activity [19]: Active
- inhibition [20]: Dose-dependent effect
- Activity [21]: Non-Toxic
- inhibition [22]: Dose-dependent effect
- Activity [23]: Active
- IC50 [24]: 10.6 µM
- inhibition [25]: Dose-dependent effect
- Selectivity ratio [26]: < 575
